Where a name gives a salt, the structure may show the parent alone.
How the values were obtained:
[1] = system: COLO 205 cell line; test: Proliferation experiment in COLO 205 cell line (CellTiter-Glo); format: cell-based; details: Homo sapiens, COLO 205 cells, 72 hours
Protocol: Proliferation experiment in COLO 205 cell line Tissue Culture. Cells were maintained in 10% FBS (Gibco #10099141)/RPMI 1640 (Gibco # A10491). The cells were harvested with 0.25% Trypsin/EDTA (Amresco #9002077), re-suspended in 10% FBS/RPMI 1640 and plated at 8,000 cells per well in 90 ul of media in a 96-well black plate with clear bottoms (Corning #3603). The cells were allowed to incubate overnight in a 37° C., 5% CO2 humidified tissue culture incubator. A 10-point test compound curve was prepared by serial diluting a 10 mM stock 1:3 in DMSO in a 384-well compound plate (costar #3656). The serial diluted compounds were transferred to the plate containing medium for further dilution. The final concentration was from 10 uM to 0.000508 uM. The serial diluted compounds were transferred to the plate containing cells by using a volley ([…]) and the cells were placed back in the incubator for 72 hours. Luminescent detection was carried out with CellTiter-Glo® Luminescent Cell Viability Assay (promega # G7572). Signal was read on TECAN Infinite F200.

[2] = target: CDC7/DBF4 (Homo sapiens (Human), UniProt O00311); test: CDC7 biochemical assay (ADP-Glo, MCM2 substrate); details: ATP 500 uM; MCM2 400 ug/ml; CDC7/DBF4 200 nM; 180 mins at 27° C.; read-out: CDC7 enzyme IC50 (nm)
Protocol: Biochemical Assay Method N-terminal GST-tagged CDC7 and DBF4 full-length proteins were co-expressed by baculovirus insect expression (BV) system and purified by GST affinity column. Used MCM2 protein as substrate, N-terminal His tag MCM2 was expressed by E. coli and purified by His affinity column. Biochemical assay was tested in the U-shaped bottom 384 plate (corning, #4514) with a final volume of […] at 27° C. The concentration of CDC7 was optimized by the enzyme titration experiment. CDC7 kinase was diluted in assay buffer (40 mM Tris.HCl pH 7.25, 100 ug/mL BSA, and 20 mM MgCl2) to get 2.4× enzyme solutions. Compounds were dissolved in 10 mM DMSO, and series diluted in DMSO from 0.3 mM to 0.3 nM (5 concentration pts); All dilutions were diluted 30× in assay buffer to get 6× compounds solutions. MCM2 Substrate and ATP were diluted to 2.4× mixed solution. Add 2 ul test compound solution to 384 assay plate, then add 5 ul substrate/ATP mixed solution, at last add 5 ul enzyme solution, incubate at 27° C. for 180 mins. Transfer 5 ul reaction solution to another 384 assay plate, then add 5 ul ADP-Glo™ Reagent (Promega) to each well and incubate at 27° C. for 40 mins; Add 10 ul Kinase Detection Reagent (Promega) to each well and incubate at 27° C. for 30 mins. 10 uM CDC7-3 compound was used as 100% inhibition while 100% DMSO control was used as 0% inhibition. Each test has three replications at least. The final concentration of the reagents: ATP was 500 uM; MCM2 was 400 ug/ml; CDC7/DBF4 was 200 nM. The data were obtained by TECAN F200 and calculated by GraphPad Prism 5.0; IC50 values were adjusted by Dose-response-Inhibition-Variable slope model.

Sequence of CDC7/DBF4 (O00311 whole entry): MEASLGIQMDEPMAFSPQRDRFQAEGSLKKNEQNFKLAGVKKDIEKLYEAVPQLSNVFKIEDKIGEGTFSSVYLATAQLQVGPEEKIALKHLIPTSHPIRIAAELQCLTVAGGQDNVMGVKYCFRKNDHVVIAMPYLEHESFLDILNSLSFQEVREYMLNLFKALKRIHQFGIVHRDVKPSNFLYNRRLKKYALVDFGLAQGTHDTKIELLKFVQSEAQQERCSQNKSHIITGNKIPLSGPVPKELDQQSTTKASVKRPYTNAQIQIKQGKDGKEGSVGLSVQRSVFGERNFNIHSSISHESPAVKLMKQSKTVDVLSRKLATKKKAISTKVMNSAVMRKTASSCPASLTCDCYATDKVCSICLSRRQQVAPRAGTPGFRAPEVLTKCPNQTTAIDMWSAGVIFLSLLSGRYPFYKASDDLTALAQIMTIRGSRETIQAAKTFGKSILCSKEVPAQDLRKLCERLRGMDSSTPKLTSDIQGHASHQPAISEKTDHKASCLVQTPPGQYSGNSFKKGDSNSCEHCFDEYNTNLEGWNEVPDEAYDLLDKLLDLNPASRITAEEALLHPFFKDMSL
Sequence of CDC7/DBF4 (Q9UBU7 whole entry partner): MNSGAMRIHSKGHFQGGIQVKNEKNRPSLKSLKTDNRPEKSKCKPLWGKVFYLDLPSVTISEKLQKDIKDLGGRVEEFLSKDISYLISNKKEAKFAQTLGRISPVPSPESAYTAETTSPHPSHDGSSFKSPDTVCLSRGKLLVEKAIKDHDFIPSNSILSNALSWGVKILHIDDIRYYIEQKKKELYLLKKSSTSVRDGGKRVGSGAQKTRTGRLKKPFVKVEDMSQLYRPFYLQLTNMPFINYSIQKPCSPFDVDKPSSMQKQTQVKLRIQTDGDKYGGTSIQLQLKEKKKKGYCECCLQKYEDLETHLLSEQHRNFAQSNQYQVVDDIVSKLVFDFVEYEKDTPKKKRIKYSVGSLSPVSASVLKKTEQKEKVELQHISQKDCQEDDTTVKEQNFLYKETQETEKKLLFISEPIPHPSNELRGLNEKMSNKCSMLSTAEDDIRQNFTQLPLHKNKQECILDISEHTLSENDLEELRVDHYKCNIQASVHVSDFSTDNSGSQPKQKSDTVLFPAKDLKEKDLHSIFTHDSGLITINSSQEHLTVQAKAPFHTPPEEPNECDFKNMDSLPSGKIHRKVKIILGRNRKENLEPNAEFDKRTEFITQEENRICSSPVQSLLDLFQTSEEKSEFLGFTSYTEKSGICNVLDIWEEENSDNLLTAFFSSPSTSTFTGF

GI50 [1] [nM]	IC50 [2] [nM]	Structure (SMILES)
1000 to 10000	–	CC(C)[C@H](N)c1nc2cc(-c3ccnc(Cl)c3)sc2c(=O)[nH]1 [Compound 7a, (S)-2-(1-amino-2-methylpropyl)-6-(2-chloropyridin-4-yl)thieno[3,2-d]pyrimidin-4(3H)-one hydrochloride]
1000 to 10000	–	Cc1cc(-c2cc3nc([C@@H](N)C(C)C)[nH]c(=O)c3s2)ccn1 [Compound 7b, (S)-2-(1-amino-2-methylpropyl)-6-(2-methylpyridin-4-yl)thieno[3,2-d]pyrimidin-4(3H)-one hydrochloride]
> 10000	1000 to 10000	CC(C)[C@H](N)c1nc2cc(-c3cc[nH]n3)sc2c(=O)[nH]1 [Compound 7c, (S)-2-(1-amino-2-methylpropyl)-6-(1H-pyrazol-3-yl)thieno[3,2-d]pyrimidin-4(3H)-one hydrochloride]
100 to 1000	100 to 1000	CC(C)[C@H](N)c1nc2cc(-c3cc(F)ncc3F)sc2c(=O)[nH]1 [Compound 7d, (S)-2-(1-amino-2-methylpropyl)-6-(2,5-difluoropyridin-4-yl)thieno[3,2-d]pyrimidin-4(3H)-one hydrochloride]
> 10000	> 10000	CC(C)[C@H](N)c1nc2cc(-c3cnoc3)sc2c(=O)[nH]1 [Compound 7e, (S)-2-(1-amino-2-methylpropyl)-6-(isoxazol-4-yl)thieno[3,2-d]pyrimidin-4(3H)-one hydrochloride]
100 to 1000	–	CC[C@H](N)c1nc2cc(-c3ccnc(F)c3)sc2c(=O)[nH]1 [Compound 13a, (S)-2-(1-aminopropyl)-6-(2-fluoropyridin-4-yl)thieno[3,2-d]pyrimidin-4(3H)-one hydrochloride]
< 100	< 100	CC[C@H](N)c1nc2cc(-c3ccncc3F)sc2c(=O)[nH]1 [Compound 13b, (S)-2-(1-aminopropyl)-6-(3-fluoropyridin-4-yl)thieno[3,2-d]pyrimidin-4(3H)-one hydrochloride]
100 to 1000	100 to 1000	C[C@H](N)c1nc2cc(-c3ccncc3F)sc2c(=O)[nH]1 [Compound 21, (S)-2-(1-aminoethyl)-6-(3-fluoropyridin-4-yl)thieno[3,2-d]pyrimidin-4(3H)-one hydrochloride]
< 100	< 100	N[C@H](c1nc2cc(-c3ccncc3F)sc2c(=O)[nH]1)C1CC1 [Compound 25, (S)-2-(amino(cyclopropyl)methyl)-6-(3-fluoropyridin-4-yl)thieno[3,2-d]pyrimidin-4(3H)-one hydrochloride]
1000 to 10000	1000 to 10000	CC(C)[C@@H](N)c1nc2cc(-c3ccncc3F)sc2c(=O)[nH]1 [Compound 29, (R)-2-(1-amino-2-methylpropyl)-6-(3-fluoropyridin-4-yl)thieno[3,2-d]pyrimidin-4(3H)-one hydrochloride]
1000 to 10000	–	CN[C@H](c1nc2cc(-c3ccnc(F)c3)sc2c(=O)[nH]1)C(C)C [Compound 36, (S)-6-(2-fluoropyridin-4-yl)-2-(2-methyl-1-(methylamino)propyl)thieno[3,2-d]pyrimidin-4(3H)-one hydrochloride]
1000 to 10000	1000 to 10000	CC(C)(N)c1nc2cc(-c3ccnc(F)c3)sc2c(=O)[nH]1 [Compound 39, 2-(2-aminopropan-2-yl)-6-(2-fluoropyridin-4-yl)thieno[3,2-d]pyrimidin-4(3H)-one hydrochloride]
> 10000	> 10000	CC(C)[C@H](N)c1nc2cc(-c3c[nH]cn3)sc2c(=O)[nH]1 [Compound 45, (S)-2-(1-amino-2-methylpropyl)-6-(1H-imidazol-4-yl)thieno[3,2-d]pyrimidin-4(3H)-one hydrochloride]
1000 to 10000	1000 to 10000	CC(C)[C@H](N)c1nc2cc(-c3ccnnc3)sc2c(=O)[nH]1 [Compound 49, (S)-2-(1-amino-2-methylpropyl)-6-(pyridazin-4-yl)thieno[3,2-d]pyrimidin-4(3H)-one hydrochloride]
100 to 1000	100 to 1000	CC(C)[C@H](N)c1nc2cc(-c3ccncn3)sc2c(=O)[nH]1 [Compound 53, (S)-2-(1-amino-2-methylpropyl)-6-(pyrimidin-4-yl)thieno[3,2-d]pyrimidin-4(3H)-one hydrochloride]
1000 to 10000	1000 to 10000	CC(C)[C@H](N)c1nc2cc(-c3cn[nH]n3)sc2c(=O)[nH]1 [Compound 58, (S)-2-(1-amino-2-methylpropyl)-6-(2H-1,2,3-triazol-4-yl)thieno[3,2-d]pyrimidin-4(3H)-one hydrochloride]
> 10000	> 10000	CC(C)[C@H](N)c1nc2cc(-c3cc[nH]c3)sc2c(=O)[nH]1 [Compound 65, (S)-2-(1-amino-2-methylpropyl)-6-(1H-pyrrol-3-yl)thieno[3,2-d]pyrimidin-4(3H)-one hydrochloride]
> 10000	1000 to 10000	CC(C)[C@H](N)c1nc2cc(N3CCNCC3)sc2c(=O)[nH]1 [Compound 67, (S)-2-(1-amino-2-methylpropyl)-6-(piperazin-1-yl)thieno[3,2-d]pyrimidin-4(3H)-one hydrochloride]

— patent publication US10745410B2, “Substituted [5,6]cyclic-4(3H)-pyrimidinones as anticancer agents” (ZENJI RESEARCH LABORATORIES, priority 2017, dated 2020)
